Test results as given in ChEMBL document CHEMBL5055672, “Design, Synthesis, Biological Evaluation, and Computational Studies of Novel Fluorinated Candidates as PI3K Inhibitors: Targeting Fluorophilic Binding Sites” (J Med Chem, 2021).

Assays:
[1] = target: T1, Phosphatidylinositol 4,5-bisphosphate 3-kinase catalytic subunit delta isoform (Homo sapiens, UniProt O00329); test: Inhibition of PI3Kdelta (unknown origin) using PIP2 as substrate preincubated for 10 mins followed by substrate addition and measured after 1 hr by ELISA
T1 sequence (O00329 whole entry): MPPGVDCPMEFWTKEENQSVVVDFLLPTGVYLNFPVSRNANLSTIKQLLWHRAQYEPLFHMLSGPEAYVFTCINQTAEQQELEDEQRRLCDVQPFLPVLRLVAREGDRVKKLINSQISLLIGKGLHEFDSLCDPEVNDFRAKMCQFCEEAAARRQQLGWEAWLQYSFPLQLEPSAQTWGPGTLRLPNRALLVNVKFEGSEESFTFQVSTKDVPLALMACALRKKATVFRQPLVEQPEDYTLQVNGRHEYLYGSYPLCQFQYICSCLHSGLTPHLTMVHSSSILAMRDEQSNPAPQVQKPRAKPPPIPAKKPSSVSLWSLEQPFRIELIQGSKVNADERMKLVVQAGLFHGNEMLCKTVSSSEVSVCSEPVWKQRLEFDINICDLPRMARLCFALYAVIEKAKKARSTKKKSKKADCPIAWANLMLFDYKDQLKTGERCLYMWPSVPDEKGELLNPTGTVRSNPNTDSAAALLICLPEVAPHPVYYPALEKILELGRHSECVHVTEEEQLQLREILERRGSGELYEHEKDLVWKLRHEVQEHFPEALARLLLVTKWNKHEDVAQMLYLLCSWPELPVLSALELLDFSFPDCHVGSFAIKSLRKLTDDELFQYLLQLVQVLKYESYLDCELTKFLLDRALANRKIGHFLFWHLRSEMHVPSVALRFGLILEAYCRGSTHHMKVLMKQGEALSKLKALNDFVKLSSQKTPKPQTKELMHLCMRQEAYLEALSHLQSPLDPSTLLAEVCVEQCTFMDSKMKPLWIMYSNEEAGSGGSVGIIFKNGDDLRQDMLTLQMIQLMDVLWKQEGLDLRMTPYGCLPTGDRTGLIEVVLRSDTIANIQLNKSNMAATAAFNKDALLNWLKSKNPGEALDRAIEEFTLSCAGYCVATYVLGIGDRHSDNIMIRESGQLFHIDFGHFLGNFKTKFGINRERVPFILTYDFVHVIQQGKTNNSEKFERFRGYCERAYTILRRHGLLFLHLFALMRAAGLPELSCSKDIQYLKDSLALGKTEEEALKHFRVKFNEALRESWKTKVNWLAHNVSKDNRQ

CCRF-CEM = test: Cytotoxicity against human CCRF-CEM cells assessed as growth inhibition at 10 uM after 48 hrs by sulforhodamine B assay; assay type: functional; conditions: read-out: GI
OVCAR-4 = test: Cytotoxicity against human OVCAR-4 cells assessed as growth inhibition at 10 uM after 48 hrs by sulforhodamine B assay; assay type: functional; conditions: read-out: GI
MCF7 [2] = test: Induction of cell cycle arrest in human MCF7 cells assessed as accumulation of cells at G1 phase at IC50 concentration by Propidium iodide staining based flow cytometric analysis (reference value: 61.45%); assay type: functional
NCI/ADR-RES = test: Cytotoxicity against human NCI-ADR-RES cells assessed as growth inhibition at 10 uM after 48 hrs by sulforhodamine B assay; assay type: functional; conditions: read-out: GI
UO-31 = test: Cytotoxicity against human UO-31 cells assessed as growth inhibition at 10 uM after 48 hrs by sulforhodamine B assay; assay type: functional; conditions: read-out: GI
MCF7 [3] = test: Antiproliferative activity against human MCF7 cells assessed as inhibition of cell growth incubated for 48 hrs by MTT assay; assay type: functional, cell-based; conditions: MCF7, 48 h
K562 = test: Cytotoxicity against human K562 cells assessed as growth inhibition at 10 uM after 48 hrs by sulforhodamine B assay; assay type: functional; conditions: read-out: GI
MCF7 [4] = test: Induction of apoptosis in human MCF7 cells assessed as early apoptotic cells at 2.25 uM after 48 hrs by annexin V-FITC/propidium iodide staining based flow cytometric analysis (reference value: 0.36%); assay type: functional
CAKI-1 = test: Cytotoxicity against human CAKI-1 cells assessed as growth inhibition at 10 uM after 48 hrs by sulforhodamine B assay; assay type: functional; conditions: read-out: GI
[5] = target: Phosphatidylinositol 4,5-bisphosphate 3-kinase catalytic subunit beta isoform (Homo sapiens, UniProt P42338); test: Inhibition of PI3Kbeta (unknown origin) using PIP2 as substrate preincubated for 10 mins followed by substrate addition and measured after 1 hr by ELISA
Chain of Phosphatidylinositol 4,5-bisphosphate 3-kinase catalytic subunit beta isoform (P42338 whole entry, canonical isoform): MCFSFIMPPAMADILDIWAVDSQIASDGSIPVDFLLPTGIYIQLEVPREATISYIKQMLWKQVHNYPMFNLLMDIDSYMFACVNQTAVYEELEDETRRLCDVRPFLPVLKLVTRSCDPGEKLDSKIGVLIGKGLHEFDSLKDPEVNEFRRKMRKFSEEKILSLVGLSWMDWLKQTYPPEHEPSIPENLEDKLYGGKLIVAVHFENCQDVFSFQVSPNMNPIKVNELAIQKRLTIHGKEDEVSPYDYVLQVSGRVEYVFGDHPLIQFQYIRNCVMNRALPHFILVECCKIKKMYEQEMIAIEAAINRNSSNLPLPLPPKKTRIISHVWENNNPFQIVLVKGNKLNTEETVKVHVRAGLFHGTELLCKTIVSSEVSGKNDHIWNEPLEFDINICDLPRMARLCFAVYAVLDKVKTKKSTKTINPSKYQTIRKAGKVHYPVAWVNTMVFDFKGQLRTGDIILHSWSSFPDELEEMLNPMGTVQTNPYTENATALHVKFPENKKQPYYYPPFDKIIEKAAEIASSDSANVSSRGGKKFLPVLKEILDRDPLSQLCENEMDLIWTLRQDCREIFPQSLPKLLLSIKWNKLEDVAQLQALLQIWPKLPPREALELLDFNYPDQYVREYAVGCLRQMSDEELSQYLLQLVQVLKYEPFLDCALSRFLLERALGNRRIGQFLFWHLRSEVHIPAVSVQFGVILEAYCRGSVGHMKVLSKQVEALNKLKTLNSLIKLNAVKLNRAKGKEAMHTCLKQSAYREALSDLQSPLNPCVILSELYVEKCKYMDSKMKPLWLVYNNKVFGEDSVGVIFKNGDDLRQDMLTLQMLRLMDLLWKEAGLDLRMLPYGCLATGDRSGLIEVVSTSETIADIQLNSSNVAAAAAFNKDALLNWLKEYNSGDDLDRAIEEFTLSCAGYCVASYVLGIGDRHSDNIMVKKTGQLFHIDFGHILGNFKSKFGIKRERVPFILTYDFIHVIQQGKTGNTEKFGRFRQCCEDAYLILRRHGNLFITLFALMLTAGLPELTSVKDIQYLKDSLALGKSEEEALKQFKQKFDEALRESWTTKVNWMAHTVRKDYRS

MCF7 [6] = test: Induction of cell cycle arrest in human MCF7 cells assessed as accumulation of cells at G2/M phase at IC50 concentration by Propidium iodide staining based flow cytometric analysis (reference value: 10.94%); assay type: functional
KM12 = test: Cytotoxicity against human KM12 cells assessed as growth inhibition at 10 uM after 48 hrs by sulforhodamine B assay; assay type: functional; conditions: read-out: GI
UACC-62 = test: Cytotoxicity against human UACC-62 cells assessed as growth inhibition at 10 uM after 48 hrs by sulforhodamine B assay; assay type: functional; conditions: read-out: GI
M14 = test: Cytotoxicity against human M14 cells assessed as growth inhibition at 10 uM after 48 hrs by sulforhodamine B assay; assay type: functional; conditions: read-out: GI
SR = test: Cytotoxicity against human SR cells assessed as growth inhibition at 10 uM after 48 hrs by sulforhodamine B assay; assay type: functional; conditions: read-out: GI
A549 = test: Cytotoxicity against human A549 cells assessed as growth inhibition at 10 uM after 48 hrs by sulforhodamine B assay; assay type: functional; conditions: read-out: GI
HT-29 = test: Cytotoxicity against human HT-29 cells assessed as growth inhibition at 10 uM after 48 hrs by sulforhodamine B assay; assay type: functional; conditions: read-out: GI
SN12C = test: Cytotoxicity against human SN12C cells assessed as growth inhibition at 10 uM after 48 hrs by sulforhodamine B assay; assay type: functional; conditions: read-out: GI
MCF7 [7] = test: Induction of apoptosis in human MCF7 cells assessed as necrotic cells at 2.25 uM after 48 hrs by annexin V-FITC/propidium iodide staining based flow cytometric analysis (reference value: 1.26%); assay type: functional
[8] = Selectivity index, ratio of IC50 for human MCF-10A cells to IC50 for human MCF7 cells; assay type: toxicity; conditions: MCF-10A cells versus MCF7 cells, read-out: Ratio IC50
NCI-H226 = test: Cytotoxicity against human NCI-H226 cells assessed as growth inhibition at 10 uM after 48 hrs by sulforhodamine B assay; assay type: functional; conditions: read-out: GI
T47D = test: Cytotoxicity against human T47D cells assessed as growth inhibition at 10 uM after 48 hrs by sulforhodamine B assay; assay type: functional; conditions: read-out: GI
DU-145 = test: Cytotoxicity against human DU-145 cells assessed as growth inhibition at 10 uM after 48 hrs by sulforhodamine B assay; assay type: functional; conditions: read-out: GI
MOLT-4 = test: Cytotoxicity against human MOLT-4 cells assessed as growth inhibition at 10 uM after 48 hrs by sulforhodamine B assay; assay type: functional; conditions: read-out: GI
[9] = target: Phosphatidylinositol 4,5-bisphosphate 3-kinase catalytic subunit alpha isoform (Homo sapiens, UniProt P42336); test: Inhibition of PI3Kalpha (unknown origin) using PIP2 as substrate preincubated for 10 mins followed by substrate addition and measured after 1 hr by ELISA
Chain of Phosphatidylinositol 4,5-bisphosphate 3-kinase catalytic subunit alpha isoform (P42336 whole entry, canonical isoform): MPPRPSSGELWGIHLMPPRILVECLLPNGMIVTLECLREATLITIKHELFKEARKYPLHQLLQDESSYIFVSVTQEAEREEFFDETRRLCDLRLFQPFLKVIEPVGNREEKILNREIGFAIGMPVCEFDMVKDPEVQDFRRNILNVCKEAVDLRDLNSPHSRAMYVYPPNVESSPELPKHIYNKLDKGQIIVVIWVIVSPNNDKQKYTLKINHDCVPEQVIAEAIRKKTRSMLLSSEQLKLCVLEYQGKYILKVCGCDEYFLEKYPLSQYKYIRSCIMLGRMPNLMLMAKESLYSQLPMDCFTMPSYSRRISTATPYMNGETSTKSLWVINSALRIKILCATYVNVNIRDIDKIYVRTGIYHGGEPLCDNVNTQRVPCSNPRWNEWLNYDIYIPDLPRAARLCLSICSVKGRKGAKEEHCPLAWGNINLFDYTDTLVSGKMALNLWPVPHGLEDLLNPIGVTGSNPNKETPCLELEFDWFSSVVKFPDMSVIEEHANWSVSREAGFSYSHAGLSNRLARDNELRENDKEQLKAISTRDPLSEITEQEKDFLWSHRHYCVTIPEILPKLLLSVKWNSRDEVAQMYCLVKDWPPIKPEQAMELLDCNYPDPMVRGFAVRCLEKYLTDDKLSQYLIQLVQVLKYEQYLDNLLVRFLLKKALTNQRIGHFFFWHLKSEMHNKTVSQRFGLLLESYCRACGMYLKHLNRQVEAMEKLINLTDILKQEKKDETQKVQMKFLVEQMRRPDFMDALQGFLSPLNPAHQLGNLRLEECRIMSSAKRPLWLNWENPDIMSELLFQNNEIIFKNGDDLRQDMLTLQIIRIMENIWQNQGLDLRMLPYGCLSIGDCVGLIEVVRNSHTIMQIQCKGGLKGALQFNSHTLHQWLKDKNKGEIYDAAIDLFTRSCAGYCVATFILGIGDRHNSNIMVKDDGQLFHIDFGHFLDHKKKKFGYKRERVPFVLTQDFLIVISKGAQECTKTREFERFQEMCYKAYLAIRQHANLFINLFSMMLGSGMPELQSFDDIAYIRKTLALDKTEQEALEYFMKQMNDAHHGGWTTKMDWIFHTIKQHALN

ACHN = test: Cytotoxicity against human ACHN cells assessed as growth inhibition at 10 uM after 48 hrs by sulforhodamine B assay; assay type: functional; conditions: read-out: GI
HCC 2998 = test: Cytotoxicity against human HCC 2998 cells assessed as growth inhibition at 10 uM after 48 hrs by sulforhodamine B assay; assay type: functional; conditions: read-out: GI
MCF7 [10] = test: Induction of apoptosis in human MCF7 cells assessed as late apoptotic cells at 2.25 uM after 48 hrs by annexin V-FITC/propidium iodide staining based flow cytometric analysis (reference value: 0.14%); assay type: functional
MCF7 [11] = test: Induction of cell cycle arrest in human MCF7 cells assessed as accumulation of cells at G phase at IC50 concentration by Propidium iodide staining based flow cytometric analysis (reference value: 1.76%); assay type: functional
MCF7 [12] = test: Cytotoxicity against human MCF7 cells assessed as growth inhibition at 10 uM after 48 hrs by sulforhodamine B assay; assay type: functional; conditions: read-out: GI
HCT-15 = test: Cytotoxicity against human HCT-15 cells assessed as growth inhibition at 10 uM after 48 hrs by sulforhodamine B assay; assay type: functional; conditions: read-out: GI
NCI-H522 = test: Cytotoxicity against human NCI-H522 cells assessed as growth inhibition at 10 uM after 48 hrs by sulforhodamine B assay; assay type: functional; conditions: read-out: GI
MCF7 [13] = test: Induction of cell cycle arrest in human MCF7 cells assessed as accumulation of cells at S phase at IC50 concentration by Propidium iodide staining based flow cytometric analysis (reference value: 27.61%); assay type: functional
HL-60(TB) = test: Cytotoxicity against human HL-60(TB) cells assessed as growth inhibition at 10 uM after 48 hrs by sulforhodamine B assay; assay type: functional; conditions: read-out: GI
MCF-10A = test: Cytotoxicity against human MCF10A cells assessed as inhibition of cell growth incubated for 48 hrs by MTT assay; assay type: cell-based
RPMI-8226 = test: Cytotoxicity against human RPMI-8226 cells assessed as growth inhibition at 10 uM after 48 hrs by sulforhodamine B assay; assay type: functional; conditions: read-out: GI
LOX IMVI = test: Cytotoxicity against human LOX IMVI cells assessed as growth inhibition at 10 uM after 48 hrs by sulforhodamine B assay; assay type: functional; conditions: read-out: GI

Compound: FC(F)(F)COc1ccc(-c2nnc(Nc3ccccc3)s2)cc1
- IC50 [1]: 73.7 µM
- inhibition of growth at 10 µM (CCRF-CEM): 19.2%
- inhibition of growth at 10 µM (OVCAR-4): 12.8%
- Activity (MCF7 [2]): 66.34%
- inhibition of growth at 10 µM (NCI/ADR-RES): 10.8%
- inhibition of growth at 10 µM (UO-31): 21.4%
- IC50 (MCF7 [3]): 2.25 µM
- inhibition of growth at 10 µM (K562): 57.4%
- Activity (MCF7 [4]): 4.15%
- inhibition of growth at 10 µM (CAKI-1): 50%
- IC50 [5]: 30.7 µM
- Activity (MCF7 [6]): 4.55%
- inhibition of growth at 10 µM (KM12): 57.2%
- inhibition of growth at 10 µM (UACC-62): 24.4%
- inhibition of growth at 10 µM (M14): 12.8%
- inhibition of growth at 10 µM (SR): 39.3%
- inhibition of growth at 10 µM (A549): 15%
- inhibition of growth at 10 µM (HT-29): 45.7%
- inhibition of growth at 10 µM (SN12C): 13.1%
- Activity (MCF7 [7]): 9.72%
- selectivity ratio [8]: 16.9
- inhibition of growth at 10 µM (NCI-H226): 20.5%
- inhibition of growth at 10 µM (T47D): 27.7%
- inhibition of growth at 10 µM (DU-145): 14.8%
- inhibition of growth at 10 µM (MOLT-4): 24.1%
- IC50 [9]: 19.4 µM
- inhibition of growth at 10 µM (ACHN): 16.1%
- inhibition of growth at 10 µM (HCC 2998): 27.5%
- Activity (MCF7 [10]): 13.09%
- Activity (MCF7 [11]): 26.96%
- inhibition of growth at 10 µM (MCF7 [12]): 21.2%
- inhibition of growth at 10 µM (HCT-15): 50.9%
- inhibition of growth at 10 µM (NCI-H522): 36.7%
- Activity (MCF7 [13]): 29.11%
- inhibition of growth at 10 µM (HL-60(TB)): 12.6%
- IC50 (MCF-10A): 38 µM
- inhibition of growth at 10 µM (RPMI-8226): 13.4%
- inhibition of growth at 10 µM (LOX IMVI): 18.8%
